Measured values taken from patent US20250319026A1, “VITAMIN COMPOSITION FOR ORAL ADMINISTRATION” (priority 2023, published 2025).

Assay: Concentrations of B vitamins obtainable in solution using polysorbate 40 as a solvent
Type: physicochemical
Details: polysorbate 40 as a solvent in an amount of at least 1.8 wt. %; water
Excerpt: One of the major disadvantages and drawbacks of the aforementioned prior art references is the absence of both pyridoxine, thiamine, cyanocobalamin in sufficiently high concentrations to ensure the supply of these vitamins to cover the necessary needs of the body.

concentration obtainable in the solution: at least 0.1 wt. %
Substance: cyanocobalamin
